Results from patent US8865725B2, “Substituted imidazopyrimidin-5(6H)-ones as allosteric modulators of MGLUR5 receptors” (Vanderbilt University, priority 2011, dated 2014).
Like-named read-outs stand apart in the source and are kept apart here.

Assays:
human mGluR5a receptor = human mGluR5a receptor (Homo sapiens, UniProt P41594); assay: Cell-based functional assay (Ca2+ mobilization, FDSS) for positive allosteric modulation of mGluR5; details: for EC50: potentiation in presence of EC20 glutamate; for Emax: maximum % effect in concentration-response curve, as percent of response to maximally effective glutamate concentration
Description: The mGluR5 activity was determined using the metabotropic glutamate receptor activity assays in human embryonic kidney cells as described herein, wherein the human embryonic kidney cells were transfected with human mGluR5. The compounds in Table I were synthesized with methods identical or analogous to those shown herein. The Synthetic Route Reference indicated in Table I refers to the Reaction Scheme number described above. The requisite starting materials were commercially available, described in the literature, or readily synthesized by one skilled in the art of organic synthesis.
Human mGluR5a cDNA in pCMV6-XL6 mammalian expression plasmid was purchased from OriGene Technologies, Inc. (catalogue number SC326357) and subcloned into pcDNA3.1(−). […] Monoclones were named for the species (“H” for human) plus the location on the plate (e.g. “10H”).
HEK cells transfected with the human mGluR5a receptor (H10H or H12H cell line) were plated at 15,000 cells/well in clear-bottomed poly-D-lysine-coated assay plates (BD Falcon) in glutamate-glutamine-free growth medium and incubated overnight at 37° C. and 5% CO2. Cell-lines used were either the H10H or H12H cell-lines expressing the human mGluR5 receptor. The following day, the growth medium was removed and the cells were washed with assay buffer containing 1× Hank's balanced salt solution (Invitrogen, Carlsbad, Calif.), 20 mM HEPES, 2.5 mM probenecid, pH 7.4 and left with 20 μL of this reagent. Following this step, the cells were loaded with calcium indicator dye, fluo-4 AM, to a final concentration of 2 μM and incubated for 40-45 min at 37° C. The dye solution was removed and replaced with assay buffer. Cell plates were held for 10-15 min at room temperature and were then loaded into the Functional Drug Screening System 6000 (FDSS 6000, Hamamatsu, Japan).
After establishment of a fluorescence baseline for about 3 seconds, the compounds of the present invention were added to the cells, and the response in cells was measured. 2.3 minutes later an EC20 concentration of the mGluR5 receptor agonist glutamate was added to the cells, and the response of the cells was measured for about 1.7 minutes. All test compounds were dissolved and diluted to a concentration of 10 mM in 100% DMSO and then serially diluted into assay buffer for a 2× stock solution in 0.6% DMSO; stock compounds were then added to the assay for a final DMSO concentration of 0.3% after the first addition to the assay well. Calcium fluorescence measures were recorded as fold over basal fluorescence; raw data was then normalized to the maximal response to glutamate.
The concentration-response curves of compounds of the present invention, obtained in the presence of EC20 of mGluR5 receptor agonist glutamate to determine positive allosteric modulation, were generated using Microsoft Excel with IDBS XLfit add-ins. The raw data file containing all time points was used as the data source in the analysis template. This was saved by the FDSS as a tab-delimitted text file. Data were normalized using a static ratio function (F/F0) for each measurement of the total 350 values per well divided by each well's initial value. Data was then reduced as to peak amplitudes (Max—Initial Min) using a time range that starts approximately 1 second after the glutamate EC20 addition and continues for approximately 40 seconds. This is sufficient time to capture the peak amplitude of the cellular Calcium response. Individual amplitudes were expressed as % EMax by multiplying each amplitude by 100 and then dividing the product by the mean of the amplitudes derived from the glutamate ECMax-treated wells. pEC50 values for test compounds were generated by fitting the normalized values versus the log of the test compound concentration (in mol/L) using a 4 parameter logistic equation where none of the parameters were fixed.

[1] = HEK cells transfected with human mGluR5a (H10H or H12H), read-out: EC50
[2] = HEK cells transfected with human mGluR5a (H10H or H12H), concentration in mol/L, read-out: pEC50 (converted)
[3] = EC50 (nM), HEK cells transfected with human mGluR5a (H10H or H12H)
[4] = pEC50, HEK cells transfected with human mGluR5a (H10H or H12H), concentration in mol/L

human mGluR5a receptor, sequence (P41594 21-1180 isoform P41594-2 limits assumed): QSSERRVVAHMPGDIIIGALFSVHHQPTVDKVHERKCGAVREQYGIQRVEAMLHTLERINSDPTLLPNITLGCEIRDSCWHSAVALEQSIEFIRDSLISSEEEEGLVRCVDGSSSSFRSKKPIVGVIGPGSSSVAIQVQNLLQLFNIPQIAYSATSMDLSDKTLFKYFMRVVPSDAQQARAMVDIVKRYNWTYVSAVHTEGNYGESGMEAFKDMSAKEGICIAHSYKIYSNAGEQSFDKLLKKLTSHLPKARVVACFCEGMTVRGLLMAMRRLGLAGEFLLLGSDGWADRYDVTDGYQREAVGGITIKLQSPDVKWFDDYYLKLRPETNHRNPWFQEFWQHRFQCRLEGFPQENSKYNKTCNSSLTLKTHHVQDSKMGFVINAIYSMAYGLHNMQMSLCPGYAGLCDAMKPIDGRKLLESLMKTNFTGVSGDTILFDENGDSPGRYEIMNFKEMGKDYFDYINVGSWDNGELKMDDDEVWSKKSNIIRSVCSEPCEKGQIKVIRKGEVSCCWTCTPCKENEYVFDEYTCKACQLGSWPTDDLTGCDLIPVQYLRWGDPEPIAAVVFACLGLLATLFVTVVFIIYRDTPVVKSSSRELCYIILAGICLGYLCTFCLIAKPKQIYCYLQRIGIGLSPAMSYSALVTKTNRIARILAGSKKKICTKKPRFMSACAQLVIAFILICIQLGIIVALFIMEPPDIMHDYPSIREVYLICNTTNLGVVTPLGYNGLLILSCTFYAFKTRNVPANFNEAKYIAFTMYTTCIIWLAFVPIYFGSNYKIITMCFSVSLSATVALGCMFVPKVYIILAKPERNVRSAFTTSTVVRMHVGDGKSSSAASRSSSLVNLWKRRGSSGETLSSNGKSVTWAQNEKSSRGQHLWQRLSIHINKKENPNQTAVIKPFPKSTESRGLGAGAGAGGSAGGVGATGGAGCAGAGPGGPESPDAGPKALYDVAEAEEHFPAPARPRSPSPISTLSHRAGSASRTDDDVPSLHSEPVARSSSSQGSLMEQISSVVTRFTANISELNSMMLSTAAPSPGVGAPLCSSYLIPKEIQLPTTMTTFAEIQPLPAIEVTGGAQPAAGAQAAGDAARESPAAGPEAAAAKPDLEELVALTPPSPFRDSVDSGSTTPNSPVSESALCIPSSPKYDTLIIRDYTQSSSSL

Structure (SMILES) | EC50 (human mGluR5a receptor; [1]) [nM] | Emax (human mGluR5a receptor) [%] | melting point [°C] | EC50 (human mGluR5a receptor; [2]) [nM] | EC50 (human mGluR5a receptor; [3]) [nM] | EC50 (human mGluR5a receptor; [4]) [nM]
O=c1[nH]ccc2nc(COc3ccccc3)cn12 [compound 1, 2-phenoxymethyl-6H-imidazo[1,2-c]pyrimidin-5-one] | > 30200 | 19 | – | – | – | –
Cn1ccc2nc(COc3ccccc3)cn2c1=O [compound 2] | > 10000 | 69 | 130.9 | – | – | –
O=c1n(-c2ccc(F)cc2)ccc2nc(COc3ccccc3)cn12 [compound 3] | 392 | 79 | 142.3 | 269 | – | –
O=c1n(-c2cccc(F)c2)ccc2nc(COc3ccccc3)cn12 [compound 4] | – | 68 | 123.4 | – | 525 | 513
O=c1n(-c2ccc(F)c(F)c2)ccc2nc(COc3ccccc3)cn12 [compound 5] | – | 79 | 296.6 | 214 | 228 | –
O=c1n(-c2ccc(F)cc2)ccc2nc(COc3cccc(F)c3)cn12 [compound 6] | – | 73 | 141.1 | 214 | 224 | –
O=c1n(Cc2ccccc2)ccc2nc(COc3ccccc3)cn12 [compound 7] | 1240 | 80 | 122.3 | – | – | –
Cc1cccc(-n2ccc3nc(COc4ccccc4)cn3c2=O)n1 [compound 8] | 2290 | 43 | > 300 | 2190 | – | –
O=c1n(-c2ccc(F)cn2)ccc2nc(COc3ccccc3)cn12 [compound 9] | 490 | 75 | – | – | – | –
Cc1nc(-n2ccc3nc(COc4ccccc4)cn3c2=O)ccc1F [compound 10] | 292 | 70 | 199.5 | – | – | –
Cc1ccc(-n2ccc3nc(COc4ccccc4)cn3c2=O)nc1 [compound 11] | 1320 | 59 | 209.4 | 1150 | – | –
Cc1cccc(OCc2cn3c(=O)n(-c4ccc(F)cc4)ccc3n2)c1 [compound 12] | 468 | 33 | – | 513 | – | –
N#Cc1cccc(OCc2cn3c(=O)n(-c4ccc(F)cc4)ccc3n2)c1 [compound 13] | 350 | 40 | 165 | – | – | –
O=c1n(-c2ccc(F)cc2)ccc2nc(COc3ccc(F)cc3)cn12 [compound 14] | 302 | 72 | 163.4 | 309 | – | –
Cc1ccnc(-n2ccc3nc(COc4ccccc4)cn3c2=O)c1 [compound 15] | 8320 | 51 | 239.4 | > 10000 | – | –
O=c1n(-c2cccc(C(F)(F)F)c2)ccc2nc(COc3ccc(F)cc3)cn12 [compound 16] | 1290 | 50 | > 300 | 1170 | – | –

Structure (SMILES) | EC50 (human mGluR5a receptor; [1]) [nM] | Emax (human mGluR5a receptor) [%] | melting point [°C] | EC50 (human mGluR5a receptor; [2]) [nM] | EC50 (human mGluR5a receptor; [3]) [nM] | EC50 (human mGluR5a receptor; [4]) [nM]
O=c1n(CC2CC2)ccc2nc(COc3ccccc3)cn12 [compound 17] | – | 51 | 102.1 | 1050 | 1100 | –
O=c1n(-c2ccc(F)cc2)ccc2nc(COc3ccccn3)cn12 [compound 18] | 2510 | 66 | 282.3 | 2140 | – | –
O=c1n(-c2ccc(F)cc2)ccc2nc(COc3cccnc3)cn12 [compound 19] | > 30200 | 59 | > 300 | – | – | –
O=c1n(-c2ccc(F)cc2)cc(F)c2nc(COc3ccccc3)cn12 [compound 20] | 78 | 73 | 110.7 | 85.1 | – | –
O=c1n(-c2cccc(C(F)(F)F)c2)ccc2nc(COc3ccc(Cl)cc3)cn12 [compound 21] | > 10000 | – | 141.8 | – | – | –
N#Cc1ccc(OCc2cn3c(=O)n(-c4cccc(C(F)(F)F)c4)ccc3n2)cc1 [compound 22] | > 10000 | – | 189.4 | – | – | –
Cc1cc(-n2ccc3nc(COc4ccccc4)cn3c2=O)ncc1F [compound 23] | 327 | 60 | 203.1 | 331 | – | –
CN(C)c1cccc(-n2ccc3nc(COc4ccccc4)cn3c2=O)n1 [compound 24] | 201 | 64 | 136 | 209 | – | –
COc1nccc(-n2ccc3nc(COc4ccccc4)cn3c2=O)n1 [compound 25, 6-(2-methoxy-pyrimidin-4-yl)-2-phenoxymethyl-6H-imidazo[1,2-c]pyrimidin-5-one] | 570 | 46 | 171.2 | – | – | –
Cc1cn(-c2ccc(F)cc2)c(=O)n2cc(COc3ccccc3)nc12 [compound 27, 6-(4-fluoro-phenyl)-8-methyl-2-phenoxymethyl-6H-imidazo[1,2-c]pyrimidin-5-one] | > 30200 | 16 | 146.9 | – | – | –
Cc1cc2nc(COc3ccccc3)cn2c(=O)n1-c1ccc(F)cc1 [compound 28] | 1860 | 49 | 143.6 | 1480 | – | –
O=c1n(-c2ccc(F)cc2)ccc2nc(COc3ccccc3)c(Cl)n12 [compound 29, 3-chloro-6-(4-fluoro-phenyl)-2-phenoxymethyl-6H-imidazo[1,2-c]pyrimidin-5-one] | > 30200 | 17 | 170.3 | – | – | –
O=C1N(c2ccc(F)cc2)CCc2nc(COc3ccccc3)cn21 [compound 31] | 97 | 71 | 195.2 | 102 | – | –
Cc1ccc(N2CCc3nc(COc4ccccc4)cn3C2=O)nc1 [compound 36, 6-(5-methyl-pyridin-2-yl)-2-phenoxymethyl-7,8-dihydro-6H-imidazo[1,2-c]pyrimidin-5-one] | 468 | 63 | – | – | – | –
Cc1nc(N2CCc3nc(COc4ccccc4)cn3C2=O)ccc1F [compound 38] | 166 | 72 | – | – | – | 178
